Broadly, the melting point is the temperature, or range, at which the solid turns liquid. Broadly, the IC50 is the concentration needed to halve the response being measured.

Tested on in the first data set: not given
Assay: not given
Conditions: not given
Molecule `CCS(=O)(=O)c1cc(OCCCCCCc2cccc(OCCCC(=O)O)c2CCC(=O)O)cc(-c2ccc3c(c2)OCO3)c1` [Example 47, 4-[3-[6-(3-Benzo[1,3]dioxol-5-yl-5-ethanesulfonyl-phenoxy)-hexyl]-2-(2-carboxy-ethyl)-phenoxy]-butyric Acid] yielded a melting point of 134 to 135 °C.

A further data set concerns BLT1 and BLT2 receptors (HL-60 cells). The data set can be described thus: Ca2+ flux assay for LTB4 antagonist assay (HL-60 FLIPR). Conditions: Retinoic acid induced HL-60 cells, inhibition of LTB4-induced Ca2+ flux, 30 min preincubation; read-out: LTB4 antagonism (HL-60 FLIPR) IC50. The data set is classed as cell-based, Human. The protocol:
Ca^2+ Flux Assay for LTB4 Antagonist Assay
Human leukemia HL-60 cells endogenously expressing BLT1 and BLT2 receptors were cultured in RPMI-1640 medium supplemented with 20% fetal bovine serum, 2 mM glutamine, 100 U/mL penicillin and 100 ug/mL streptomycin.
Seventy two hours prior to experiment cells are counted using ViaCount reagent, centrifuged and resuspended at 2.0×10^5 cells/mL density with the complete growth media containing 1 μM Retinoic Acid (Sigma).
On a day of the experiment loading buffer (Calcium-3 Assay Kit, Molecular Devices) was prepared by dissolving the contents of one vial (Express Kit) into 500 mL Hank's Balanced Salt Solution containing 20 mM HEPES and 5 mM probenecid. Equal volume of the loading buffer was mixed with the replacement buffer (Hank's Balanced Salt Solution containing 20 mM HEPES, 0.05% BSA and 5 mM probenecid). Retinoic Acid induced HL-60 cells were counted using ViaCount reagent, centrifuged and resuspended at 2.0×10^6 cells/mL density with the loading buffer/replacement buffer, dispensed into 384 well black/clear microplates (Falcon)(25 μL/well) and placed in a 37° C./5% CO2 incubator for 1 hour.
During the incubation, test compounds were prepared at 6× the desired concentration in HBSS/20 mM HEPES/0.05% BSA as well as LTB4 (Biomol) was prepared at 2.2× concentration in HBSS/20 mM HEPES/0.5% BSA buffer.
After the incubation, both the cell and compound plates were brought to the FLIPR and 5 μL of the diluted compounds were transferred to the cell plates by the FLIPR. Plates were then incubated for 30 min at room temperature. After the ½ hour incubation, plates were returned to the FLIPR and 25 μL of 2.2×LTB4 was added to the cell plates. During the assay, fluorescence readings were taken simultaneously from all 384 wells of the cell plate every 1.5 seconds. Five readings were taken to establish a stable baseline, then 25 μL (LTB4) of sample was rapidly and simultaneously added to each well of the cell plate. The fluorescence was continuously monitored before, during and after sample addition for a total elapsed time of 100 seconds. Responses (increase in peak fluorescence) in each well following agonist addition was determined. The initial fluorescence reading from each well, prior to ligand stimulation, was used a zero baseline value for the data from that well. The responses are expressed as % inhibition of the neutral control (neural control: wells that received buffer plus DMSO but no test compound).
In general terms: A change in cytosolic calcium serves as a functional read-out for many receptors and channels.
For `CCCS(=O)(=O)c1cc(OCCCCCCc2cccc(OCCCC(=O)O)c2CCC(=O)O)cc(-c2ccc(F)cc2)c1` [Example 55, 4-[2-(2-Carboxy-ethyl)-3-[6-(5-(propane-1-sulfonyl)-4′-fluoro-biphenyl-3-yloxy)-hexyl]-phenoxy]-butyric Acid], the half-inhibitory concentration (IC50) was determined as 63.8 nM.

As for `CS(=O)(=O)c1cc(OCCCCCCc2cccc(OCCCC(=O)O)c2CCC(=O)O)cc(-c2ccc3c(c2)OCO3)c1` [Example 40, 4-[3-[6-(3-Benzo[1,3]dioxol-5-yl-5-methanesulfonyl-phenoxy)-hexyl]-2-(2-carboxy-ethyl)-phenoxy]-butyric Acid], the IC50 is 0.09 nM.

For `CS(=O)(=O)c1cc(OCCCCCCc2cccc(OCCCC(=O)O)c2CCC(=O)O)cc(Oc2ccc(Cl)cc2)c1` [Example 23, 4-(2-(2-Carboxy-ethyl)-3-{6-[3-(4-chloro-phenoxy)-5-methanesulfonyl-phenoxy]-hexyl}-phenoxy)-butyric Acid], the IC50 amounted to 361 nM.

`COc1ccc(-c2cc(OCCCCCCc3cccc(OCCCC(=O)O)c3CCC(=O)O)cc(S(C)(=O)=O)c2)cc1` [Example 29, 4-{2-(2-Carboxy-ethyl)-3-[6-(5-methanesulfonyl-4′-methoxy-biphenyl-3-yloxy)-hexyl]-phenoxy}-butyric Acid]: the concentration for half-maximal inhibition (IC50) stood at 0.12 nM. Consider `CCS(=O)(=O)c1cc(OCCCCCCc2cccc(OCCCC(=O)O)c2CCC(=O)O)cc(-c2ccc(F)cc2)c1` [Example 51, 4-[2-(2-Carboxy-ethyl)-3-[6-(5-ethanesulfonyl-4′-fluoro-biphenyl-3-yloxy)-hexyl]-phenoxy]-butyric Acid], for which the IC50 stood at 2.8 nM. The same measure, in the same setting: for `CS(=O)(=O)c1cc(OCCCCCCc2cccc(OCCCC(=O)O)c2CCC(=O)O)cc(-c2ccc3scnc3c2)c1` [Example 45, 4-[3-[6-(3-Benzothiazol-5-yl-5-methanesulfonyl-phenoxy)-hexyl]-2-(2-carboxy-ethyl)-phenoxy]-butyric Acid] the value was 0.2 nM.

With `CC(C)S(=O)(=O)c1cc(OCCCCCCc2cccc(OCCCC(=O)O)c2CCC(=O)O)cc(-c2ccc(F)cc2)c1` [Example 60, 4-[2-(2-Carboxy-ethyl)-3-[6-(5-(propane-2-sulfonyl)-4′-fluoro-biphenyl-3-yloxy)-hexyl]-phenoxy]-butyric Acid], the half-inhibitory concentration (IC50) came to 15.3 nM. For `CS(=O)(=O)c1cc(OCCCCCCc2cccc(OCCCC(=O)O)c2CCC(=O)O)cc(-c2ccc(O)cc2)c1` [Example 5, 4-{2-(2-Carboxy-ethyl)-3-[6-(4′-hydroxy-5-methanesulfonyl-biphenyl-3-yloxy)-hexyl]-phenoxy}-butyric Acid], the 50% inhibitory concentration (IC50) came to 1.22 nM.

Consider `CS(=O)(=O)c1cc(Nc2ccccc2)cc(OCCCCCCc2cccc(OCCCC(=O)O)c2CCC(=O)O)c1` [Example 26, 4-{2-(2-Carboxy-ethyl)-3-[6-(3-methanesulfonyl-5-phenylamino-phenoxy)-hexyl]-phenoxy}-butyric Acid], for which the IC50 was 47.1 nM. On to `CS(=O)(=O)c1cc(OCCCCCCc2cccc(OCCCC(=O)O)c2CCC(=O)O)cc(-c2ccsc2)c1` [Example 12, 4-{2-(2-Carboxy-ethyl)-3-[6-(3-methanesulfonyl-5-thiophen-3-yl-phenoxy)-hexyl]-phenoxy}-butyric Acid], for which the IC50 amounted to 0.44 nM. As for `Cc1ccc(-c2cc(OCCCCCCc3cccc(OCCCC(=O)O)c3CCC(=O)O)cc(S(C)(=O)=O)c2)cc1F` [Example 11, 4-{2-(2-Carboxy-ethyl)-3-[6-(3′-fluoro-5-methanesulfonyl-4′-methyl-biphenyl-3-yloxy)-hexyl]-phenoxy}-butyric Acid], the concentration for half-maximal inhibition (IC50) was 0.32 nM. Take `CCS(=O)(=O)c1cc(OCCCCCCc2cccc(OCCCC(=O)O)c2CCC(=O)O)cc(-c2ccsc2)c1` [Example 52, 4-[2-(2-Carboxy-ethyl)-3-[6-(3-ethanesulfonyl-5-thiophen-3-yl-phenoxy)-hexyl]-phenoxy]-butyric Acid]: the IC50 is 1.04 nM.

Turning to `CS(=O)(=O)c1cc(OCCCCCCc2cccc(OCCCC(=O)O)c2CCC(=O)O)cc(-c2ccc3c(c2)OC(F)(F)O3)c1` [Example 46, 4-(2-(2-Carboxy-ethyl)-3-{6-[3-(2,2-difluoro-benzo[1,3]dioxol-5-yl)-5-methanesulfonyl-phenoxy]-hexyl}-phenoxy)-butyric Acid], the concentration for half-maximal inhibition (IC50) worked out at 0.24 nM.

`CS(=O)(=O)c1cc(OCCCCCCc2cccc(OCCCC(=O)O)c2CCC(=O)O)cc(-c2cccc(F)c2)c1` [Example 27, 4-{2-(2-Carboxy-ethyl)-3-[6-(3′-fluoro-5-methanesulfonyl-biphenyl-3-yloxy)-hexyl]-phenoxy}-butyric Acid]: the concentration for half-maximal inhibition (IC50) was determined as 0.9 nM. As to `CS(=O)(=O)c1cc(OCCCCCCc2cccc(OCCCC(=O)O)c2CCC(=O)O)cc(-c2cscn2)c1` [Example 21, 4-{2-(2-Carboxy-ethyl)-3-[6-(3-methanesulfonyl-5-thiazol-4-yl-phenoxy)-hexyl]-phenoxy}-butyric Acid], the IC50 was determined as 261 nM. For the molecule `CS(=O)(=O)c1cc(OCCCCCCc2cccc(OCCCC(=O)O)c2CCC(=O)O)cc(-c2ccccc2)c1` [Example 28, 4-{2-(2-Carboxy-ethyl)-3-[6-(5-methanesulfonyl-biphenyl-3-yloxy)-hexyl]-phenoxy}-butyric Acid], the IC50 was 0.38 nM.

For `CS(=O)(=O)c1cc(OCCCCCCc2cccc(OCCCC(=O)O)c2CCC(=O)O)cc(-c2ccc3c(c2)OCCO3)c1` [Example 41, 4-(2-(2-Carboxy-ethyl)-3-{6-[3-(2,3-dihydro-benzo[1,4]dioxin-6-yl)-5-methanesulfonyl-phenoxy]-hexyl}-phenoxy)-butyric Acid], the IC50 came out at 0.47 nM. For the molecule `CCc1ccc(-c2cc(OCCCCCCc3cccc(OCCCC(=O)O)c3CCC(=O)O)cc(S(C)(=O)=O)c2)cc1` [Example 13, 4-{2-(2-Carboxy-ethyl)-3-[6-(4′-ethyl-5-methanesulfonyl-biphenyl-3-yloxy)-hexyl]-phenoxy}-butyric Acid], the IC50 came to 0.91 nM.

For the molecule `CCS(=O)(=O)c1cc(OCCCCCCc2cccc(OCCCC(=O)O)c2CCC(=O)O)cc(-c2ccc3c(c2)OCO3)c1` [Example 47, 4-[3-[6-(3-Benzo[1,3]dioxol-5-yl-5-ethanesulfonyl-phenoxy)-hexyl]-2-(2-carboxy-ethyl)-phenoxy]-butyric Acid], the half-maximal inhibitory concentration (IC50) was determined as 0.27 nM. Take `CS(=O)(=O)c1cc(OCCCCCCc2cccc(OCCCC(=O)O)c2CCC(=O)O)cc(-c2ccc(F)cc2)c1` [Example 8, 4-{2-(2-Carboxy-ethyl)-3-[6-(4′-fluoro-5-methanesulfonyl-biphenyl-3-yloxy)-hexyl]-phenoxy}-butyric Acid]: the IC50 came out at 0.38 nM.

The values above are taken from patent US8093253B2, “Leukotriene B4 inhibitors” (Hoffmann-La Roche Inc., priority 2008, dated 2012).
